≈ marks a conversion by molar mass, not a printed value.

This assay relates to P388. As to the kind of experiment: Cytotoxicity against mouse P388 cells. It counts as functional, cell-based.
As usually defined, the IC50 is the point on the concentration scale where inhibition reaches its midpoint. Low values mean greater potency, high ones weaker potency. The molecule `CC(=O)O[C@@H]1C2=C(C)C(=O)C[C@@](O)([C@@H](OC(=O)c3ccccc3)[C@@H]3[C@]4(OC(C)=O)CO[C@@H]4C[C@H](O)[C@@]3(C)[C@H]1O)C2(C)C` gave an IC50 of 21 µg/mL (≈ 35.8 µM). The molecule `C=C1[C@@H](OC(=O)/C=C/c2ccccc2)C[C@H](OC(C)=O)[C@@]2(C)[C@@H](OC(C)=O)[C@H](OC(C)=O)C3=C(C)[C@@H](OC(C)=O)C[C@@H]([C@@H](O)[C@H]12)C3(C)C` yielded an IC50 of 3.9 µg/mL (≈ 5.85 µM). Compared with the last molecule, the IC50 is about 5.4-fold lower.

`CC(=O)O[C@H]1C[C@H]2OC[C@@]2(OC(C)=O)[C@H]2[C@H](OC(=O)c3ccccc3)[C@]3(C(C)(C)O)C[C@H](O)C(C)=C3[C@@H](O)[C@H](O)[C@]12C` had an IC50 of 44 µg/mL (≈ 74.7 µM).
